Reference: patent US20140171434A1, “SUBSTITUTED IMIDAZOPYRIDINES AND IMIDAZOPYRIDAZINES AND THE USE THEREOF” (BAYER PHARMA AKTIENGESSELLSCHAFT, priority 2011, published 2014)

Experiments:
[1] = system: recombinant guanylate cyclase reporter cell line; experiment: Effect on a recombinant guanylate cyclase reporter cell line; format: cell-based
Method: The cellular activity of the compounds according to the invention is determined using a recombinant guanylate cyclase reporter cell line, as described in F. Wunder et al., Anal. Biochem. 339, 104-112 (2005).

[2] = system: rabbit aorta rings; experiment: Vasorelaxant action in vitro (phenylephrine-contracted rabbit aorta rings); settings: Oryctolagus cuniculus, phenylephrine contraction, 0.1% DMSO, read-out: IC50 (concentration needed to reduce the phenylephrine contraction by 50%)
Method: Rabbits are stunned by a blow to the neck and exsanguinated. The aorta is removed, freed from adhering tissue and divided into rings of a width of 1.5 mm. The rings are placed individually under an initial tension in 5 ml organ baths with Krebs-Henseleit solution which is at 37° C., is gassed with carbogen and has the following composition (in each case mM): sodium chloride 119; potassium chloride: 4.8; calcium chloride dihydrate: 1; magnesium sulfate heptahydrate: 1.4; potassium dihydrogenphosphate: 1.2; sodium bicarbonate: 25; glucose: 10. The contractile force is determined with Statham UC2 cells, amplified and digitalized using A/D transducers (DAS 1802 HC, Keithley Instruments Munich), and recorded in parallel on linear recorders. To obtain a contraction, phenylephrine is added to the bath cumulatively in increasing concentration. After several control cycles, the substance to be investigated is added in each further run in increasing dosage in each case, and the height of the contraction achieved is compared with the height of the contraction reached in the last preceding run. This is used to calculate the concentration needed to reduce the magnitude of the control value by 50% (IC50 value). The standard administration volume is 5 μl; the DMSO content in the bath solution corresponds to 0.1%.

[3] = Pharmacokinetic parameters following intravenous administration to rats; format: in vivo, male Wistar rats; settings: rat, 0.3 mg/kg intravenous; for MRT / half-life: male, Wistar, plasma; for MRT: read-out: Mean residence time; for half-life: read-out: Terminal half-life (converted)
Method: The pharmacokinetic parameters of the compounds of the formula (I) according to the invention are determined in male Wistar rats. The administration volume is 5 ml/kg. Intravenous administration is by means of a species-specific plasma/DMSO formulation (99/1). The taking of blood from rats is simplified by inserting a silicone catheter into the right Vena jugularis externa prior to substance administration. The surgical intervention takes place one day prior to the experiment with isofluran anesthesia and administration of an analgetic (atropine/rimadyl (3/1) 0.1 ml s.c.). Substance administration is as an i.v. bolus. Removal of blood from the rats is after 0.033, 0.083, 0.17, 0.5, 1, 2, 3, 4, 6, 8, 24 and 27 hours. The blood is removed into heparinized tubes. The blood plasma is then obtained by centrifugation; if required, it can be stored at −20° C. until further processing.
An internal standard (ZK 228859) is added to the samples of the compounds of the formula (I) according to the invention, calibration samples and QCs, and the protein is precipitated using excess acetonitrile. After addition of an ammonium acetate buffer (0.01 M, pH 6.8) and subsequent vortexing, the mixture is centrifuged at 1000 g and the supernatant is examined by LC-MS/MS (API 4000, AB Sciex). Chromatographic separation is carried out on an Agilent 1100-HPLC. The injection volume is 20 μl. The separation column used is a Phenomenex Gemini 5μ C18 110A 50×3 mm, adjusted to a temperature of 40° C. A binary mobile phase gradient at 500 μl/min is used (A: 0.01M ammonium acetate buffer pH 6.8, B: 0.1% formic acid in acetonitrile): 0 min (90% A), 1 min (90% A), 3 min (10% A), 4 min (10% A), 4.50 min (90% A), 6 min (90% A). The temperature of the Turbo V ion source is 400° C. The following MS instrument parameters are used: curtain gas 15 units, ion spray voltage 4.8 kV, gas 1 50 units, gas 2 40 units, CAD gas 8 units. The substances are quantified by peak heights or areas using extracted ion chromatograms of specific MRM experiments.
The plasma concentration/time plots determined are used to calculate the pharmacokinetic parameters such as AUC, Cmax, t1/2 (terminal half life), MRT (mean residence time) and CL (clearance), using the validated pharmacokinetic calculation program KinEx (Vers.3).
Since the substance quantification is performed in plasma, it is necessary to determine the blood/plasma distribution of the substance in order to be able to adjust the pharmacokinetic parameters correspondingly. For this purpose, a defined amount of substance is incubated in heparinized whole blood of the species in question in a rocking roller mixer for 20 min. After centrifugation at 1000 g, the plasma concentration is measured (see above) and determined by calculating the quotient of the cblood/cplasma values.
Following intravenous administration of 0.3 mg/kg of representative compounds according to the invention to rats, the data listed in Table 3 were obtained: […]

Row | IC50 [2] [nM] | MRT [3] [h] | half-life [3] [h] | CLblood [3] [mL/min/kg] | Structure (SMILES) | MEC (minimum effective concentration) [1] [µM]
1 | 42 |  |  |  | CC1(C)C(=O)Nc2nc(-c3nc(Cc4ccccc4F)n4ncccc34)nnc21 [Example 4, 3-[7-(2-Fluorobenzyl)imidazo[1,5-b]pyridazin-5-yl]-7,7-dimethyl-5,7-dihydro-6H-pyrrolo[2,3-e][1,2,4]triazin-6-one] | 0.03
2 | 30 | 9.4 | 7.2 | 0.5 | CC1(C)C(=O)Nc2nc(-c3nc(Cc4c(F)ccc(F)c4F)n4cc(Cl)ccc34)nnc21 [Example 11, 3-[6-Chloro-3-(2,3,6-trifluorobenzyl)imidazo[1,5-a]pyridin-1-yl]-7,7-dimethyl-5,7-dihydro-6H-pyrrolo[2,3-e][1,2,4]triazin-6-one] | 0.03
3 | 276 | 4.6 | 5.2 | 2.67 | CC1(C)C(=O)Nc2nc(-c3nc(CCC(F)(F)C(F)(F)F)n4cc(F)ccc34)nnc21 [Example 12, 3-[6-Fluoro-3-(3,3,4,4,4-pentafluorobutyl)imidazo[1,5-a]pyridin-1-yl]-7,7-dimethyl-5,7-dihydro-6H-pyrrolo[2,3-e][1,2,4]triazin-6-one] | 1.0

Continued, compound first:

Row | Structure (SMILES) | IC50 [2] [nM] | MRT [3] [h] | half-life [3] [h] | CLblood [3] [mL/min/kg] | MEC (minimum effective concentration) [1] [µM]
4 | CC1(C)C(=O)Nc2nc(-c3nc(Cc4ccccc4F)n4ncccc34)nc(I)c21 [Example 1, 2-[7-(2-Fluorobenzyl)imidazo[1,5-b]pyridazin-5-yl]-4-iodo-5,5-dimethyl-5,7-dihydro-6H-pyrrolo[2,3-d]pyrimidin-6-one] |  |  |  |  | 0.1
5 | CC1(C)C(=O)Nc2nc(-c3nc(Cc4ccccc4F)n4ncccc34)ncc21 [Example 3, 2-[7-(2-Fluorobenzyl)imidazo[1,5-b]pyridazin-5-yl]-5,5-dimethyl-5,7-dihydro-6H-pyrrolo[2,3-d]pyrimidin-6-one] | 72 |  |  |  | 0.03
6 | CC1(C)C(=O)Nc2nc(-c3nc(Cc4c(F)ccc(F)c4F)n4cc(Cl)ccc34)ncc21 [Example 7, 2-[6-Chloro-3-(2,3,6-trifluorobenzyl)imidazo[1,5-a]pyridin-1-yl]-5,5-dimethyl-5,7-dihydro-6H-pyrrolo[2,3-d]pyrimidin-6-one] |  |  |  |  | 0.01
